These results are taken from patent publication US11820773B2, “Tricyclic compounds” (ALIGOS THERAPEUTICS, INC., priority 2020, dated 2023).

Structures are written as SMILES. Some results are limits rather than exact numbers.

This assay concerns HBV. In words: HBV-DNA antiviral assay using HepG2.117 cells (intracellular HBV DNA by qPCR). It counts as cell-based, genotype D HBV. To be noted: Hepatitis B virus, 72 h, HBV DNA inhibition, 3 days incubation, 2% DMSO. In short, it runs like this: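 Endpoints are intracellular HBV DNA by qPCR (interpolated from a gBlock standard curve) and ATP-based viability in duplicate plates. Doxycycline-free HepG2.117 Tet-off cells received compounds (9 concentrations, 4-fold steps, 2% DMSO) for 3 days. Inhibition normalised to DMSO wells; EC50/EC90/CC50 by curve fitting.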
By EC50 is commonly meant the concentration at which the effect is half-maximal. For `CNC(=O)c1cnc(-n2c(=O)c3c(n4ncc(Cc5ccccc5)c24)CN(C(=O)c2ccc(Br)c(C(F)(F)F)c2)[C@@H](C)C3)nc1` (stereo in doubt) [Compound 69b, N-methyl-2-[rac-(11S)-5-benzyl-12-[4-bromo-3-(trifluoromethyl)benzoyl]-11-methyl-8-oxo-2,3,7,12-tetrazatricyclo[7.4.0.0^2,6]trideca-1(9),3,5-trien-7-yl]pyrimidine-5-carboxamide], the EC50 is < 50 nM.
In the case of `C[C@@H]1Cc2c(n3ncc(Cc4ccccc4)c3n(-c3ccc(-n4ccc(C(F)(F)F)n4)cc3)c2=O)CN1C(=O)c1ccc(Br)c(C(F)(F)F)c1` (stereo in doubt) [Compound 70a, rac-(11R)-5-benzyl-12-[4-bromo-3-(trifluoromethyl)benzoyl]-11-methyl-7-[4-[3-(trifluoromethyl)pyrazol-1-yl]phenyl]-2,3,7,12-tetrazatricyclo[7.4.0.0^2,6]trideca-1(9),3,5-trien-8-one], the EC50 was 50 to 500 nM.
The compound `C[C@H]1Cc2c(n3ncc(Cc4ccccc4)c3n(-c3ccc(-n4ccc(C(F)(F)F)n4)cc3)c2=O)CN1C(=O)c1ccc(Br)c(C(F)(F)F)c1` (stereo in doubt) [Compound 70b, rac-(11S)-5-benzyl-12-[4-bromo-3-(trifluoromethyl)benzoyl]-11-methyl-7-[4-[3-(trifluoromethyl)pyrazol-1-yl]phenyl]-2,3,7,12-tetrazatricyclo[7.4.0.0^2,6]trideca-1(9),3,5-trien-8-one] yielded an EC50 of 500 to 5000 nM.
`C[C@@H]1Cc2c(n3ncc(Cc4ccccc4)c3n(-c3ccc(-c4nnn[nH]4)cc3)c2=O)CN1C(=O)c1ccc(Br)c(C(F)(F)F)c1` (stereo in doubt) [Compound 71a, rac-(11R)-5-benzyl-12-[4-bromo-3-(trifluoromethyl)benzoyl]-11-methyl-7-[4-(1H-tetrazol-5-yl)phenyl]-2,3,7,12-tetrazatricyclo[7.4.0.0^2,6]trideca-1(9),3,5-trien-8-one] yielded an EC50 of 500 to 5000 nM.
In the case of `C[C@H]1Cc2c(n3ncc(Cc4ccccc4)c3n(-c3ccc(-c4nnn[nH]4)cc3)c2=O)CN1C(=O)c1ccc(Br)c(C(F)(F)F)c1` (stereo in doubt) [Compound 71b, rac-(11S)-5-benzyl-12-[4-bromo-3-(trifluoromethyl)benzoyl]-11-methyl-7-[4-(1H-tetrazol-5-yl)phenyl]-2,3,7,12-tetrazatricyclo[7.4.0.0^2,6]trideca-1(9),3,5-trien-8-one], the EC50 is > 5000 nM.
With `C[C@@H]1Cc2c(n3ncc(Cc4ccccc4)c3n(-c3ccc4c(c3)nnn4C)c2=O)CN1C(=O)c1ccc(Br)c(C(F)(F)F)c1` (stereo in doubt) [Compound 72a, rac-(11R)-5-benzyl-12-[4-bromo-3-(trifluoromethyl)benzoyl]-11-methyl-7-(1-methylbenzotriazol-5-yl)-2,3,7,12-tetrazatricyclo[7.4.0.0^2,6]trideca-1(9),3,5-trien-8-one], the EC50 was < 50 nM.
Turning to `C[C@H]1Cc2c(n3ncc(Cc4ccccc4)c3n(-c3ccc4c(c3)nnn4C)c2=O)CN1C(=O)c1ccc(Br)c(C(F)(F)F)c1` (stereo in doubt) [Compound 72b, rac-(11S)-5-benzyl-12-[4-bromo-3-(trifluoromethyl)benzoyl]-11-methyl-7-(1-methylbenzotriazol-5-yl)-2,3,7,12-tetrazatricyclo[7.4.0.0^2,6]trideca-1(9),3,5-trien-8-one], the EC50 was < 50 nM.
The result for `CNC(=O)c1cnc(-n2c(=O)c3c(n4ncc(Cc5ccccc5)c24)CN(C(=O)c2ccc(Br)c(C(F)(F)F)c2)[C@H](C)C3)cn1` (stereo in doubt) [Compound 73a, N-methyl-5-[rac-(11R)-5-benzyl-12-[4-bromo-3-(trifluoromethyl)benzoyl]-11-methyl-8-oxo-2,3,7,12-tetrazatricyclo[7.4.0.0^2,6]trideca-1(9),3,5-trien-7-yl]pyrazine-2-carboxamide] reads < 50 nM.
Regarding `CNC(=O)c1cnc(-n2c(=O)c3c(n4ncc(Cc5ccccc5)c24)CN(C(=O)c2ccc(Br)c(C(F)(F)F)c2)[C@@H](C)C3)cn1` (stereo in doubt) [Compound 73b, N-methyl-5-[rac-(11S)-5-benzyl-12-[4-bromo-3-(trifluoromethyl)benzoyl]-11-methyl-8-oxo-2,3,7,12-tetrazatricyclo[7.4.0.0^2,6]trideca-1(9),3,5-trien-7-yl]pyrazine-2-carboxamide], the EC50 is < 50 nM.
Consider `C[C@@H]1Cc2c(n3ncc(Cc4ccccc4)c3n(-c3ccc(-c4nnc(C(F)(F)F)[nH]4)cc3)c2=O)CN1C(=O)c1ccc(Br)c(C(F)(F)F)c1` (stereo in doubt) [Compound 74a, rac-(11R)-5-benzyl-12-[4-bromo-3-(trifluoromethyl)benzoyl]-11-methyl-7-[4-[5-(trifluoromethyl)-4H-1,2,4-triazol-3-yl]phenyl]-2,3,7,12-tetrazatricyclo[7.4.0.0^2,6]trideca-1(9),3,5-trien-8-one], for which the concentration giving a half-maximal response (EC50) is < 50 nM.
The result for `C[C@H]1Cc2c(n3ncc(Cc4ccccc4)c3n(-c3ccc(-c4nnc(C(F)(F)F)[nH]4)cc3)c2=O)CN1C(=O)c1ccc(Br)c(C(F)(F)F)c1` (stereo in doubt) [Compound 74b, rac-(11S)-5-benzyl-12-[4-bromo-3-(trifluoromethyl)benzoyl]-11-methyl-7-[4-[5-(trifluoromethyl)-4H-1,2,4-triazol-3-yl]phenyl]-2,3,7,12-tetrazatricyclo[7.4.0.0^2,6]trideca-1(9),3,5-trien-8-one] reads 50 to 500 nM; that for `Cc1nn[nH]c1-c1ccc(-n2c(=O)c3c(n4ncc(CC5CC5)c24)CN(C(=O)c2ccc(Br)c(C(F)(F)F)c2)[C@H](C)C3)cc1` (stereo in doubt) [Compound 75a, rac-(11R)-12-[4-bromo-3-(trifluoromethyl)benzoyl]-5-(cyclopropylmethyl)-11-methyl-7-[4-(4-methyl-1H-triazol-5-yl)phenyl]-2,3,7,12-tetrazatricyclo[7.4.0.0^2,6]trideca-1(9),3,5-trien-8-one], < 50 nM.
Then `Cc1nn[nH]c1-c1ccc(-n2c(=O)c3c(n4ncc(CC5CC5)c24)CN(C(=O)c2ccc(Br)c(C(F)(F)F)c2)[C@@H](C)C3)cc1` (stereo in doubt) [Compound 75b, rac-(11S)-12-[4-bromo-3-(trifluoromethyl)benzoyl]-5-(cyclopropylmethyl)-11-methyl-7-[4-(4-methyl-1H-triazol-5-yl)phenyl]-2,3,7,12-tetrazatricyclo[7.4.0.0^2,6]trideca-1(9),3,5-trien-8-one], with 50 to 500 nM; and `Cc1nn[nH]c1-c1ccc(-n2c(=O)c3c(n4ncc(CC5CCC5)c24)CN(C(=O)c2ccc(Br)c(C(F)(F)F)c2)[C@H](C)C3)cc1` (stereo in doubt) [Compound 76a, rac-(11R)-12-[4-bromo-3-(trifluoromethyl)benzoyl]-5-(cyclobutylmethyl)-11-methyl-7-[4-(4-methyl-1H-triazol-5-yl)phenyl]-2,3,7,12-tetrazatricyclo[7.4.0.0^2,6]trideca-1(9),3,5-trien-8-one], with < 50 nM.
Then `Cc1nn[nH]c1-c1ccc(-n2c(=O)c3c(n4ncc(CC5CCC5)c24)CN(C(=O)c2ccc(Br)c(C(F)(F)F)c2)[C@@H](C)C3)cc1` (stereo in doubt) [Compound 76b, rac-(11S)-12-[4-bromo-3-(trifluoromethyl)benzoyl]-5-(cyclobutylmethyl)-11-methyl-7-[4-(4-methyl-1H-triazol-5-yl)phenyl]-2,3,7,12-tetrazatricyclo[7.4.0.0^2,6]trideca-1(9),3,5-trien-8-one], with 50 to 500 nM.
As to `CNC(=O)c1cc(-n2c(=O)c3c(n4ncc(CC(C)C)c24)CN(C(=O)c2ccc(Br)c(C(F)(F)F)c2)[C@H](C)C3)nn1C` (stereo in doubt) [Compound 77a, N,2-dimethyl-5-[rac-(11R)-12-[4-bromo-3-(trifluoromethyl)benzoyl]-5-isobutyl-11-methyl-8-oxo-2,3,7,12-tetrazatricyclo[7.4.0.0^2,6]trideca-1(9),3,5-trien-7-yl]pyrazole-3-carboxamide], the EC50 is < 50 nM.
As to `CNC(=O)c1cc(-n2c(=O)c3c(n4ncc(CC(C)C)c24)CN(C(=O)c2ccc(Br)c(C(F)(F)F)c2)[C@@H](C)C3)nn1C` (stereo in doubt) [Compound 77b, N,2-dimethyl-5-[rac-(11S)-12-[4-bromo-3-(trifluoromethyl)benzoyl]-5-isobutyl-11-methyl-8-oxo-2,3,7,12-tetrazatricyclo[7.4.0.0^2,6]trideca-1(9),3,5-trien-7-yl]pyrazole-3-carboxamide], the EC50 was < 50 nM.
For `C#CCc1cnn2c3c(c(=O)n(-c4ccc(C(=O)NC)cc4)c12)C[C@@H](C)N(C(=O)c1ccc(Br)c(C(F)(F)F)c1)C3` (stereo in doubt) [Compound 78a, N-methyl-4-[rac-(11R)-12-[4-bromo-3-(trifluoromethyl)benzoyl]-11-methyl-8-oxo-5-prop-2-ynyl-2,3,7,12-tetrazatricyclo[7.4.0.0^2,6]trideca-1 (9),3,5-trien-7-yl]benzamide], the EC50 was < 50 nM.
The compound `C#CCc1cnn2c3c(c(=O)n(-c4ccc(C(=O)NC)cc4)c12)C[C@H](C)N(C(=O)c1ccc(Br)c(C(F)(F)F)c1)C3` (stereo in doubt) [Compound 78b, N-methyl-4-[rac-(11S)-12-[4-bromo-3-(trifluoromethyl)benzoyl]-11-methyl-8-oxo-5-prop-2-ynyl-2,3,7,12-tetrazatricyclo[7.4.0.0^2,6]trideca-1 (9),3,5-trien-7-yl]benzamide] came in with an EC50 of 50 to 500 nM.
The result for `Cc1cnn(-c2ccc(-n3c(=O)c4c(n5ncc(Cc6ccccc6)c35)CN(C(=O)c3ccc(Br)c(C(F)(F)F)c3)[C@H](C)C4)cc2)n1` (stereo in doubt) [Compound 79a, rac-(11R)-5-benzyl-12-[4-bromo-3-(trifluoromethyl)benzoyl]-11-methyl-7-[4-(4-methyltriazol-2-yl)phenyl]-2,3,7,12-tetrazatricyclo[7.4.0.0^2,6]trideca-1(9),3,5-trien-8-one] reads < 50 nM.
